Measured values published in patent US20050118290A1, “Compositions and method for treatment of steroid/nuclear receptor-mediated diseases” (University of Singapore, priority 2003, published 2005).

Key:
PPARγ = target: T1, PPARγ (Homo sapiens, UniProt P37231); assay: Chimeric Gal4DBD-PPARγLBD receptor / UASg-luciferase reporter gene assay in HeLa cells; assay type: cell-based
T1 construct: expressed in transfected cells; host or cells: HeLa
T1 sequence (P37231 238-503 limits assumed): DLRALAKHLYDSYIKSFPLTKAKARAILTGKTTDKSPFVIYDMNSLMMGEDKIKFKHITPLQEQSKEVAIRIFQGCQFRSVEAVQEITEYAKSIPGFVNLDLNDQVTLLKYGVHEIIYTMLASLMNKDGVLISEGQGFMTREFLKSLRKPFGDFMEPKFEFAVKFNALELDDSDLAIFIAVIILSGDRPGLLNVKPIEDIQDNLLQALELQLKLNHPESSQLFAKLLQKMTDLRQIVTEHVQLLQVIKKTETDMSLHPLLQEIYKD
Source text: In an example of such a reporter gene assay, a plasmid containing chimeric Ga14DBD-PPARLBD receptor cDNA was constructed by excising the ligand binding domain (LBD) of full length PPARγ and PPARα and ligating the resulting fragments in frame to the Ga14-DNA binding domain (DBD) of Saccharomyces cerevisiae in a pM vector (Clontech). Specifically, to construct Ga14DBD-PPARγLBD plasmid, pSG5 expression vector (Stratagene) containing full length PPARγ was excised with Rsa I and blunt ligated to Hind III site of pMGa14DBD expression plasmid (Clontech). To construct Ga14DBD-PPARαLBD plasmid, pSG5 expression vector (Stratagene) containing full length PPARα was excised with BstU I and BamH I and blunt-end ligated in frame to BamH I site of pMGa14DBD expression plasmid (Clontech). […] Ga14 DBD binds very strongly to the exogenous UASg promoter, thereby giving rise to a sensitive and specific assay. To measure PPARγ and PPARα agonist activity, HeLa cells were grown in 24-well microtiter plates and then transiently co-transfected with the two plasmids (chimeric PPAR receptor and UASg reporter gene) using Lipofectamine (Invitrogen). […] Concurrently, cells exposed to known PPAR ligands served as positive controls. Replicate wells, exposed to the vehicle solvent (i.e., ethanol or methanol) in which herbal extracts were dissolved, were used as negative controls. After the 40 hr incubation period, cells were rinsed with phosphate buffered saline (PBS), lysis buffer was added, and cell lysates were collected for measurement of luciferase activity using a luminometer. […] All data points are in triplicate. The data points represent the mean of triplicate wells. Luciferase activity in such an assay accurately reflects the activity of any ligands on PPARγ or PPARα.

Progesterone Receptor = target: T2, Progesterone Receptor (Homo sapiens, UniProt P06401); assay: PR (ARE)2-Luc luciferase reporter gene assay; assay type: cell-based
T2 construct: expressed in transfected cells; host or cells: HeLa (named for the formononetin and daidzein experiments)
T2 sequence (P06401 1-933): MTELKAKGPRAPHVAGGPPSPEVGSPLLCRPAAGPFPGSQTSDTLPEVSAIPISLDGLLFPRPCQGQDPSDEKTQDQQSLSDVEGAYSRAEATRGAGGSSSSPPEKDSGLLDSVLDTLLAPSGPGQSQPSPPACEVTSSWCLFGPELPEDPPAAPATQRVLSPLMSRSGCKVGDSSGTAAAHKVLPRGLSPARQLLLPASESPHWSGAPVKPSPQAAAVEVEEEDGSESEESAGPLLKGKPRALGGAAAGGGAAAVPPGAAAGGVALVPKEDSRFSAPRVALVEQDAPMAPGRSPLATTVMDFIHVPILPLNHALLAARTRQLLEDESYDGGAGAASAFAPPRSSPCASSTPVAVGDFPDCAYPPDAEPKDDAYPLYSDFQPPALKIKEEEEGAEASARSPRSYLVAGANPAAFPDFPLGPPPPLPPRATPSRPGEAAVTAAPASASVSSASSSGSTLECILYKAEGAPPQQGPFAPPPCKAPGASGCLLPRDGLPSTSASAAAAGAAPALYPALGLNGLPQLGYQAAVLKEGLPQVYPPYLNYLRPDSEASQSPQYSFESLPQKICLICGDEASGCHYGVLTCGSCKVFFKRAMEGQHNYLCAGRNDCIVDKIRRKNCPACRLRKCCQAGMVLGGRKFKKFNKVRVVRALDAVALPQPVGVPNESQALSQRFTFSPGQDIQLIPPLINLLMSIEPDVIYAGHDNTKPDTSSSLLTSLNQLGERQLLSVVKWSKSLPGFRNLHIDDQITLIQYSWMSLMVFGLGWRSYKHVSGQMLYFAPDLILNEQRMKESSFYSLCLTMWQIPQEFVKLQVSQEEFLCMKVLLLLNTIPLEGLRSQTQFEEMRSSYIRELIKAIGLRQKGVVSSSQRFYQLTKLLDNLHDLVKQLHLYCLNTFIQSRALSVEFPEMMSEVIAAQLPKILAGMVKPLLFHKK
Procedure: The capacity of HQ extract to activate other steroid receptors, namely AR, PR, GR, ERα and ERβ was examined. […] The (ARE)2-Luc plasmid consist of two repeats of Androgen Response Element (ARE) cloned upstream of the Luciferase Reporter gene in a pGL3-Basic vector (Promega).
AR, PR, GR and ERα and […] were determined by comparing luciferase activity in test cells with control cells exposed to vehicle (i.e., ethanol or methanol) only, analogous to the determination of PPAR activity as described in the previous examples.

PPARγ activity comparable to % maximal activity of pioglitazone (PPARγ; 20×10^−6 g/m)	maximal fold PPARγ activity (PPARγ; 20×10^−6 g/m)	Luciferase activity (Fold over vehicle ± SE) PR/Progesterone (10 × 10^−9M) (Progesterone Receptor; daidzein 5 ×10^−6 g/mL)	Luciferase activity (Fold over vehicle ± SE) PR/Progesterone (10 × 10^−9M) (Progesterone Receptor; daidzein 10 ×10^−6 g/mL)	Luciferase activity (Fold over vehicle ± SE) PR/Progesterone (10 × 10^−9M) (Progesterone Receptor; daidzein 20 ×10^−6 g/mL)	PPARγ activity comparable to % maximal activity of pioglitazone (PPARγ; 30×10^−6 g/ml)	maximal fold PPARγ activity (PPARγ; 30×10^−6 g/ml)	Luciferase activity (Fold over vehicle ± SE) PPARγ/Pioglitazone (30 × 10^−6M) (PPARγ; calycosin 3 ×10^−6 g/mL)	Luciferase activity (Fold over vehicle ± SE) PPARγ/Pioglitazone (30 × 10^−6M) (PPARγ; calycosin 10 ×10^−6 g/mL)	Luciferase activity (Fold over vehicle ± SE) PPARγ/Pioglitazone (30 × 10^−6M) (PPARγ; calycosin 30 ×10^−6 g/mL)	increase of the activity of maximal doses of PPARγ agonist (PPARγ; with pioglitazone 30×10^−6M)	Luciferase activity (Fold over vehicle ± SE) PR/Progesterone (10 × 10^−6M) (Progesterone Receptor; calycosin 3 ×10^−6 g/mL)	Luciferase activity (Fold over vehicle ± SE) PR/Progesterone (10 × 10^−6M) (Progesterone Receptor; calycosin 10 ×10^−6 g/mL)	Luciferase activity (Fold over vehicle ± SE) PR/Progesterone (10 × 10^−6M) (Progesterone Receptor; calycosin 30 ×10^−6 g/mL)	increase of the activity of maximal doses of PR agonist (Progesterone Receptor; with progesterone 10×10^−6M)	SMILES
~22%	20 fold	569 ± 84.0 Fold	607 ± 90.6 Fold	326 ± 65.8 Fold											O=c1c(-c2ccc(O)cc2)coc2cc(O)ccc12 [daidzein]
					~50%	40 fold	105 ± 10.7 Fold	162 ± 28.5 Fold	253 ± 30.7 Fold	3 fold	1077 ± 43.4 Fold	943 ± 44.0 Fold	837 ± 115 Fold	1.8 fold	COc1ccc(-c2coc3cc(O)ccc3c2=O)cc1O [calycosin, 3′,7-Dihydroxy-4′-methoxyisoflavone]
